In ChEMBL document CHEMBL1201862, “PubChem BioAssay data set” (2004):
Activity calls are given as the source filed them.

How the values were obtained:
[1] = target: Dual specificity tyrosine-phosphorylation-regulated kinase 1A (Rattus norvegicus, UniProt Q63470); type: biochemical, Homo sapiens
[2] = target: T1, Polyadenylate-binding protein 1 (Homo sapiens, UniProt P11940); experiment: PABP1 MLLE–PAM2 interaction inhibitors, dose response, miRNA deadenylation inhibitor project, biochemical, fluorescence polarization, Cy5-PAM2 peptide, secondary (AID 602260); type: functional; settings: read-out: IC50_Mean
[3] = target: T1, Polyadenylate-binding protein 1; experiment: PABP1 MLLE–PAM2 binding inhibitor potency, dose response, biochemical, fluorescence polarization, FITC-PAM2 peptide (AID 602259); type: functional; settings: read-out: IC50_Mean
[4] = target: Peroxisome proliferator-activated receptor gamma/Nuclear receptor coactivator 1 (Homo sapiens, UniProt P37231); experiment: (§1) TR-FRET dose response biochemical High Throughput Screening assay for agonists of the steroid receptor coactivator 1 (SRC-1) recruitment by the peroxisome proliferator-activated receptor gamma (PPAR gamma): non-selective agonists. [Related pubchem assays (depositor defined):AID1300, AID1808, AID504735, AID631]; type: protein assay
[5] = target: Peroxisome proliferator-activated receptor gamma/Nuclear receptor coactivator 3 (Homo sapiens, UniProt P37231); experiment: as §1, with “3 (SRC-3)” for “1 (SRC-1)”, “assays: 1301 (Confirmation screen.), 1048 (Primary screen.)]” for “assays (depositor defined):AID1300, AID1808, AID504735, AID631]”; type: functional
[6] = target: Peroxisome proliferator-activated receptor gamma/Nuclear receptor coactivator 2 (Homo sapiens, UniProt P37231); experiment: TR-FRET dose response biochemical High Throughput Screening assay for agonists of the steroid receptor coactivator 2 (SRC-2) recruitment by the peroxisome proliferator-activated receptor gamma (PPAR gamma): non-selective agonists. [Related pubchem assays: 1297, 1032 ]; type: functional
[7] = target: T2, High affinity choline transporter 1 (Homo sapiens, UniProt Q9GZV3); experiment: CHT inhibitors, dose response, cell-based, 5-point CRC, membrane potential dye (AID 504840); type: functional
T2 sequence (Q9GZV3 whole entry): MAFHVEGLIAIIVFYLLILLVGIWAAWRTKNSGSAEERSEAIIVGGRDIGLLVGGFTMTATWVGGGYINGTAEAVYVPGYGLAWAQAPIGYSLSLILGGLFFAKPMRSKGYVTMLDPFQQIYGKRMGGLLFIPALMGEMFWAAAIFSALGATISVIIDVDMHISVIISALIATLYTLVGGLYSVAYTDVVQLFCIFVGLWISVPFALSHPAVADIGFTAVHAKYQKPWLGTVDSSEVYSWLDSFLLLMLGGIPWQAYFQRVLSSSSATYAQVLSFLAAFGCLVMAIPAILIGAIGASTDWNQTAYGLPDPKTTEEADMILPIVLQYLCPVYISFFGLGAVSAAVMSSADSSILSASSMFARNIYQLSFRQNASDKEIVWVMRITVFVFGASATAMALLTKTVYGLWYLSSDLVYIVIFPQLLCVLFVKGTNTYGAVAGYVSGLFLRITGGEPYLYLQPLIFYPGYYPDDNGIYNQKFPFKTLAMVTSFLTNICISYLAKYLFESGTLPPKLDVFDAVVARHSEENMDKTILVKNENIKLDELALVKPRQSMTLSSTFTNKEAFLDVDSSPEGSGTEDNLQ

[8] = inhibitors of intracellular T. cruzi replication, confirmation, NIH3T3 host cells, beta-gal luminescence (AID 2044); type: functional, cell-based;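 note: intracellular parasites grown in NIH/3T3 mouse fibroblasts as host cells; luminescent beta-galactosidase reporter signal from transgenic T. cruzi replicating inside host cells; inhibitors lower the luminescence signal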
[9] = cytotoxicity toward NIH3T3 fibroblasts, dose response, counter-screen, cell-based, ATP luminescence, mouse fibroblasts (AID 2010); type: functional;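 note: cells exposed to compound for about 90 hours before reading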
[10] = target: Glucose-6-phosphate 1-dehydrogenase (Homo sapiens, UniProt P11413); experiment: human G6PD enzyme inhibitors, dose response, selectivity assay for P. falciparum G6PD inhibitor project, biochemical, fluorescence (AID 504792); type: functional
Vero = Vero cell cytotoxicity, cytotoxicity control for flavivirus capping enzyme inhibitors (AID 588742); type: functional; settings: Chlorocebus sabaeus
Genome polyprotein = Genome polyprotein (dengue virus type 2, UniProt P29990); experiment: Dengue-2 NS5 methyltransferase inhibitors, primary screen, biochemical, confirmation dose response (AID 588689); type: functional
[11] = THP-1 cell cytotoxicity, dose response, cytotoxicity control for non-replicating M. tuberculosis project (AID 489025); type: functional
[12] = target: T3, Short transient receptor potential channel 4 (Mus musculus, UniProt Q9QUQ5); experiment: mouse TRPC4 channel activators, dose response, cell-based, HEK293 TRPC4/mu-opioid, Fluo-4 calcium (AID 434937); type: functional
T3 sequence (Q9QUQ5 whole entry): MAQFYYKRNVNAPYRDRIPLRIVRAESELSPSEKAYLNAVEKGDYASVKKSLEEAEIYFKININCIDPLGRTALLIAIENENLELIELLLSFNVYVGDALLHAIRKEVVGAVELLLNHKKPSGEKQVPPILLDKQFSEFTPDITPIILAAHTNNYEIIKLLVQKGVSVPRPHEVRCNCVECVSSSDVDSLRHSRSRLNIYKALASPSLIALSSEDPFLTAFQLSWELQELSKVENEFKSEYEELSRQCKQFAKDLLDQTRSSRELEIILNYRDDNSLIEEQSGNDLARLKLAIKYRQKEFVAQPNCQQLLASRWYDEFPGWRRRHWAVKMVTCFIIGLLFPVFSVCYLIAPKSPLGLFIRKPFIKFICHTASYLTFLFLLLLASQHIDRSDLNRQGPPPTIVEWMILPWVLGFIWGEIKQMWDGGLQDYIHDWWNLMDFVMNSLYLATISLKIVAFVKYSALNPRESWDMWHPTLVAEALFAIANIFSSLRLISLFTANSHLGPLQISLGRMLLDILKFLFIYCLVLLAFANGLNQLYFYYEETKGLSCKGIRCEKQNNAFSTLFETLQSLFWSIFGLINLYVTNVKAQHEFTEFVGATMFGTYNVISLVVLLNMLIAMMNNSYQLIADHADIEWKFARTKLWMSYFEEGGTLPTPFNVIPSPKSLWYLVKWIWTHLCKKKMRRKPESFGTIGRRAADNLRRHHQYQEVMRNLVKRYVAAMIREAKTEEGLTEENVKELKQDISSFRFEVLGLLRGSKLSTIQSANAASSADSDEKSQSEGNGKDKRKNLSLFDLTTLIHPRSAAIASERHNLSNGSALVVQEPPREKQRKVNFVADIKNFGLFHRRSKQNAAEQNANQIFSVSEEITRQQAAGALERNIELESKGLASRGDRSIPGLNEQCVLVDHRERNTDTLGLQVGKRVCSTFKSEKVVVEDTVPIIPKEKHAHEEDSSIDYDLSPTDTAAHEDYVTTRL

cells = type: functional
Beta-galactosidase = Beta-galactosidase (Escherichia coli, UniProt Q8VNN2); experiment: PubChem AID 485352; type: functional
[13] = target: T4, Type-1 angiotensin II receptor (Homo sapiens, UniProt P30556); experiment: AT1 receptor antagonists, dose response, selectivity assay for APJ receptor antagonist project, cell-based, uHTS hits (AID 463214); type: functional;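 note: antagonist potency against angiotensin II stimulated AT1 response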
T4 sequence (P30556 whole entry): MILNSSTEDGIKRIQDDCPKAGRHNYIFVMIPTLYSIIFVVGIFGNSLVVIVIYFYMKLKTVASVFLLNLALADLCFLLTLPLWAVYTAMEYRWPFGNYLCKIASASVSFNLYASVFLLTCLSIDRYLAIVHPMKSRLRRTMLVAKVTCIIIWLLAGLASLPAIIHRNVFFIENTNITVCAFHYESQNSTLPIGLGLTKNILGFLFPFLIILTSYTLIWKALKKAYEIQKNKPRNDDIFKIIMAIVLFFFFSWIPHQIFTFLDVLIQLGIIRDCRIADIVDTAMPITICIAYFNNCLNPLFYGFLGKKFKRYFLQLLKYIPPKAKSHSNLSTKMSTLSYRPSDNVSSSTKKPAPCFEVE

[14] = target: T5, RNA-binding protein pos-1 (Caenorhabditis elegans, UniProt G5EF15); experiment: inhibitors of POS-1/mex-3 RNA binding, dose response, biochemical, fluorescence polarization (AID 1964);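 note: purified POS-1 fused to maltose binding protein made in E. coli; potency of compounds blocking POS-1 binding to fluorescent RNA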
T5 sequence (G5EF15 whole entry): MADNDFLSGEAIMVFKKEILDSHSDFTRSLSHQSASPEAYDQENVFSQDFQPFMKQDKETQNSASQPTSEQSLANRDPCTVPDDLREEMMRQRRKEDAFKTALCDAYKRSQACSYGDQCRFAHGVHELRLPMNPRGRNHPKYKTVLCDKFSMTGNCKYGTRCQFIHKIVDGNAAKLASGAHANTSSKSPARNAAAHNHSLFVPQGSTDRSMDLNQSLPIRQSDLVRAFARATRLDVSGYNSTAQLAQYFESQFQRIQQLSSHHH

[15] = target: T6, Zinc finger protein mex-5 (Caenorhabditis elegans, UniProt Q9XUB2); experiment: MEX-5/TCR-2 RNA interaction inhibitors, dose response, biochemical, C. elegans, fluorescence polarization (AID 1960)
T6 sequence (Q9XUB2 whole entry): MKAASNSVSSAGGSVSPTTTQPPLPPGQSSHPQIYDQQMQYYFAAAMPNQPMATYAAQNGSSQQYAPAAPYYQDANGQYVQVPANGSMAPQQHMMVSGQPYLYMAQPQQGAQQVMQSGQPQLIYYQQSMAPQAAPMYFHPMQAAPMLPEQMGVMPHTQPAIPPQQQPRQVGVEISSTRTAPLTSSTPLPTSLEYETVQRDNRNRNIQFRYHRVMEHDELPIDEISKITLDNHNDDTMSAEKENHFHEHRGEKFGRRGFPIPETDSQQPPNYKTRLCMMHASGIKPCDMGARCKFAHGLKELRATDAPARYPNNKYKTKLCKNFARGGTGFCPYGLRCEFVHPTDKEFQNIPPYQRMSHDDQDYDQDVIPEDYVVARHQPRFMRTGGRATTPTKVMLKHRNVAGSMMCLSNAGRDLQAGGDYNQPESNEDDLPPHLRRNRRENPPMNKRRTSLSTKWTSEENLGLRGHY

Peroxisome proliferator-activated receptor gamma/Nuclear receptor coactivator 2, sequence (P37231 whole entry): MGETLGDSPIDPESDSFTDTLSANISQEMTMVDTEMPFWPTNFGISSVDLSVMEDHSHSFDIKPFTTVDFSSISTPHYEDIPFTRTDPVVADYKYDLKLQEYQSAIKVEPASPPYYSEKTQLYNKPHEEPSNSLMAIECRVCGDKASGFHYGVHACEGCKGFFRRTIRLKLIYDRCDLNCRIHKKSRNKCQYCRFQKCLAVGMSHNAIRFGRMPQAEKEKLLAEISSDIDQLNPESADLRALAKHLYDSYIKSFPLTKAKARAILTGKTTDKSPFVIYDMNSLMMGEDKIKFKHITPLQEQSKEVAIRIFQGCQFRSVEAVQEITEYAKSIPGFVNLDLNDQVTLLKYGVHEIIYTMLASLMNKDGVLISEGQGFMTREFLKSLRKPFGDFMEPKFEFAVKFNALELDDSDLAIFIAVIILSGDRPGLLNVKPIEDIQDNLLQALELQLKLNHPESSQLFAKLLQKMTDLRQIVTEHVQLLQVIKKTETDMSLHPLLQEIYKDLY
Peroxisome proliferator-activated receptor gamma/Nuclear receptor coactivator 2, sequence (Q15596 whole entry, further chain): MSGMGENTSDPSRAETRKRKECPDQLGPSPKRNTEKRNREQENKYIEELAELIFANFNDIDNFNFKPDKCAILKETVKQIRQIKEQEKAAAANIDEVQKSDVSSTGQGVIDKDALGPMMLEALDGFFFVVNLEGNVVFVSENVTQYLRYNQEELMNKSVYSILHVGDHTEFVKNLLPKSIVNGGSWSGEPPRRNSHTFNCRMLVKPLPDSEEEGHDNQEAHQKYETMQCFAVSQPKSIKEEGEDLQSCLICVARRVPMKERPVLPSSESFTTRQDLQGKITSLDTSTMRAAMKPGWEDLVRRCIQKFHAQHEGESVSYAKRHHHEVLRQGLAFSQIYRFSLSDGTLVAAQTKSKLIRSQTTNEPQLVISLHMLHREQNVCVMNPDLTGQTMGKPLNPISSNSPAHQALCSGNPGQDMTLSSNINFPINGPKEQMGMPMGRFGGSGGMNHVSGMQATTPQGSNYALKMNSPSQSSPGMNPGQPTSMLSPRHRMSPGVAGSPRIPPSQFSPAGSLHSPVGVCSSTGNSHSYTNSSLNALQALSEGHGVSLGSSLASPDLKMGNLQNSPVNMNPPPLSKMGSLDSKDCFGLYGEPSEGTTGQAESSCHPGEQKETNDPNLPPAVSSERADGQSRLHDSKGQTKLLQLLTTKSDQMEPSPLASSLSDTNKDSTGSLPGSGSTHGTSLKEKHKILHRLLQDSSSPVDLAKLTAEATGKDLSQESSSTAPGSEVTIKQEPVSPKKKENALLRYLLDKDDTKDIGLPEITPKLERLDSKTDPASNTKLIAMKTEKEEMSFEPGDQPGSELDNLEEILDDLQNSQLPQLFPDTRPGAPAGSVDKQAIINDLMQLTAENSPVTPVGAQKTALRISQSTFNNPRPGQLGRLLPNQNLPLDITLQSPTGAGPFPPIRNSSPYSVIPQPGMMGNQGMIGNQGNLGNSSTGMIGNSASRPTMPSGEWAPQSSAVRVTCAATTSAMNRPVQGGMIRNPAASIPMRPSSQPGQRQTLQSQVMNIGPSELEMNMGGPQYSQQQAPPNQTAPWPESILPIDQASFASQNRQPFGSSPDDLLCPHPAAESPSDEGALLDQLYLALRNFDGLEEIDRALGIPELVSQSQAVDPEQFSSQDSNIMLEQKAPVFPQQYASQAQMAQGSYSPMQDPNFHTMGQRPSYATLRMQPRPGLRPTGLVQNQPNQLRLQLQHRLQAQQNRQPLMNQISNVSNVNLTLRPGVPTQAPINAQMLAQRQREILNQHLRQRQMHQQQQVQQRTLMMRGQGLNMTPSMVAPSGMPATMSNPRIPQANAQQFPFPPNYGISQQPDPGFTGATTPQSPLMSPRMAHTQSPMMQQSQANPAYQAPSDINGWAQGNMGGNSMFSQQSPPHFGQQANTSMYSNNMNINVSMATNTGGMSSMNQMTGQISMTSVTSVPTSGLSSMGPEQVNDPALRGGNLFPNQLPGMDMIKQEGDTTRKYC
Peroxisome proliferator-activated receptor gamma/Nuclear receptor coactivator 1, sequence (P37231 whole entry): as the sequence (P37231 whole entry) above
Peroxisome proliferator-activated receptor gamma/Nuclear receptor coactivator 1, sequence (Q15788 whole entry, further chain): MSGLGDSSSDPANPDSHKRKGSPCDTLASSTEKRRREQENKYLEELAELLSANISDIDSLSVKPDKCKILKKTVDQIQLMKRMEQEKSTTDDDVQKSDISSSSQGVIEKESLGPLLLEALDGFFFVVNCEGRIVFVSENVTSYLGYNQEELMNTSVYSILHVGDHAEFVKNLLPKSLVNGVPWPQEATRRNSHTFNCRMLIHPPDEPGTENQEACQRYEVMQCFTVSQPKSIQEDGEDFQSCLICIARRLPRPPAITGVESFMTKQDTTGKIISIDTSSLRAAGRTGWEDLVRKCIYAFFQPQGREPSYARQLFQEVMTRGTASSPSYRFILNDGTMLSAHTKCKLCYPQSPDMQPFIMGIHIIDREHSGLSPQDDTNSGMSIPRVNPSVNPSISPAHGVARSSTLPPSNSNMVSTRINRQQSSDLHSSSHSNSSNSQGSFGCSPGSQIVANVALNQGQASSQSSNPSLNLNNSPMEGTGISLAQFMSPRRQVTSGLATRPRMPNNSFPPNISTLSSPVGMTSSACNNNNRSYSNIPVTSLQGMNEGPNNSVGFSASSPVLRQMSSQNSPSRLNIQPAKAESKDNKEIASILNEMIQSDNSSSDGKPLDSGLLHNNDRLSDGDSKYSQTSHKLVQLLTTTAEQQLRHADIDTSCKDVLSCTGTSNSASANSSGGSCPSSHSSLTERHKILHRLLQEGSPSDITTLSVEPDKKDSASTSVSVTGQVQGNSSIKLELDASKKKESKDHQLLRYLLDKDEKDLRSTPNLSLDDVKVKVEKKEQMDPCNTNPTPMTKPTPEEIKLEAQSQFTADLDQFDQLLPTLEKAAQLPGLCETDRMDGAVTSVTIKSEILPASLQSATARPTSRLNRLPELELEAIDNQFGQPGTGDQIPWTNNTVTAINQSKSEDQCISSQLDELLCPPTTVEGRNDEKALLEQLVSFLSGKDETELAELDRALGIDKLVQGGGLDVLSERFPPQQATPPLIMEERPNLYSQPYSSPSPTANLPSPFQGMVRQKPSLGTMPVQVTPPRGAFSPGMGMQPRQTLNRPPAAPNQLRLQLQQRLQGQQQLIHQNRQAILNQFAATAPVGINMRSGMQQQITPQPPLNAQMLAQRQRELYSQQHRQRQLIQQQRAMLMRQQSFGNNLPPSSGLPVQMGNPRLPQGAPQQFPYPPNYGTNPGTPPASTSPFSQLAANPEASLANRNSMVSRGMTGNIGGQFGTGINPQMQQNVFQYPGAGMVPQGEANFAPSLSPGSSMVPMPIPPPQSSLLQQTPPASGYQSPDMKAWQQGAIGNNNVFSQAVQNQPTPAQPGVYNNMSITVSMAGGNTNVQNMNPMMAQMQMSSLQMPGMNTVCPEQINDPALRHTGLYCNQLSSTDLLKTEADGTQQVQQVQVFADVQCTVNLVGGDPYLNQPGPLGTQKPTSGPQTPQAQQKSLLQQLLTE
T1 sequence (P11940 whole entry): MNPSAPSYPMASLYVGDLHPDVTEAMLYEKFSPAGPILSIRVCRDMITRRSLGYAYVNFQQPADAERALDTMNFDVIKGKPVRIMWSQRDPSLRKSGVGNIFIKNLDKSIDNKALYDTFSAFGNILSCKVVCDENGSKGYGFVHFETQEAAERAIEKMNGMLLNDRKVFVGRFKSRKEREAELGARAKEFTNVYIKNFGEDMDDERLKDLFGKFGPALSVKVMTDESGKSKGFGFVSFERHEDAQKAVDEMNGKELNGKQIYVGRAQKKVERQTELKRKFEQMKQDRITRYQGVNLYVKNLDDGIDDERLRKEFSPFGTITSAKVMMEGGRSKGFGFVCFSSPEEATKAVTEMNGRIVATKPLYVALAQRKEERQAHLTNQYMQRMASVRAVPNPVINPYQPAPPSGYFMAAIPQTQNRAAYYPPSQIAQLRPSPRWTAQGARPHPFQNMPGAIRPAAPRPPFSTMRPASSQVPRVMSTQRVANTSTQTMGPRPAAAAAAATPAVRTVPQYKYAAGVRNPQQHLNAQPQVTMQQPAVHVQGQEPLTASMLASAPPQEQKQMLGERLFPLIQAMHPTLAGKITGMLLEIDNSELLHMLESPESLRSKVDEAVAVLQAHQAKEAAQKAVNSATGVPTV
Glucose-6-phosphate 1-dehydrogenase, sequence (P11413 whole entry): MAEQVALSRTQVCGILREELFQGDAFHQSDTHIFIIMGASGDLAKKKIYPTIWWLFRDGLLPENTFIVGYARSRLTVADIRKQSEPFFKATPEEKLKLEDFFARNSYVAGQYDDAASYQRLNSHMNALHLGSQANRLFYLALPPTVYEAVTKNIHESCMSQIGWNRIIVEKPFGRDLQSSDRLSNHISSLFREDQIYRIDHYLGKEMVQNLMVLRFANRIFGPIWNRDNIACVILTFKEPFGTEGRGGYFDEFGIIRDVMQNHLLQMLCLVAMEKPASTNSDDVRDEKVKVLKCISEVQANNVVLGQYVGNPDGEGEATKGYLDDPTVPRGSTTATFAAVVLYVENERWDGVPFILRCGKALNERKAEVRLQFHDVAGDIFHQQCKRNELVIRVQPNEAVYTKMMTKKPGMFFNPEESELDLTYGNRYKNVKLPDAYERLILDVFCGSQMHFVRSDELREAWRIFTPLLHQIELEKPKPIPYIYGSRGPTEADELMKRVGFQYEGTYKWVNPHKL

Question: For `NC(=S)c1ccc(C(N)=S)o1`, which AC50 [1] is on record?
Answer: 14.3 µM (active)

Question: What about the IC50 [2] of the same compound?
Answer: > 66 µM (inactive)

Question: What about the IC50 [3] of the same compound?
Answer: > 66 µM (inactive)

Question: Which EC50 [4] does the source give for `CCn1c(=O)cc(SCC(=O)N2CCN(c3ccccc3OC)CC2)c2ccccc21` here?
Answer: > 79.4 µM (inactive)

Question: What about the EC50 [5] of the same compound?
Answer: > 79.4 µM (not active)

Question: And the EC50 [6]?
Answer: > 79.4 µM (not active)

Question: For `C[C@H](NC(=O)OC(C)(C)C)c1nnc(SCC(=O)c2ccc(Cl)cc2)o1`, which IC50 [7] is on record?
Answer: 1.91 µM (active)

Question: What does the source list for `CC1=C(n2nnc([N+](=O)[O-])n2)C(c2cccnc2)C(C#N)=C(N)O1` (stereo not given)?
Answer: EC50 [8]: 0.209 µM (active); EC50 [9]: > 60 µM (inconclusive); IC50 [10]: 65 µM (inactive)

Question: For `O=c1cc(-c2ccccc2)oc2cc(O)c(O)c(O)c12` [BAICALEIN], which CC50 (Vero) is on record?
Answer: > 40 µM (active)

Question: What about the IC50 (Genome polyprotein) of the same compound?
Answer: 35.1 µM (active)

Question: What about the AC50 [1] of the same compound?
Answer: 14.5 µM (active)

Question: For `N#CCCN1CCN(C(=S)c2ccc(-c3ccc(Cl)cc3)o2)CC1`, which EC50 [4] is on record?
Answer: > 79.4 µM (inactive)

Question: What about the EC50 [5] of the same compound?
Answer: > 79.4 µM (not active)

Question: What about the EC50 [6] of the same compound?
Answer: > 79.4 µM (not active)

Question: For `COc1ccc(-n2c(=S)[nH]c3cc(C(=O)NCCCN4CCOCC4)ccc3c2=O)cc1`, which IC50 [7] is on record?
Answer: 10.3 µM (active)

Question: With `Cc1cc(Cl)cc(C)c1OCCCCn1ccnc1` as the compound, how does the CC50 [11] read?
Answer: 38.2 µM (active)

Question: What about the EC50 [12] of the same compound?
Answer: 3.76 µM (active)

Question: And the IC50 (cells)?
Answer: 15.5 µM (active)

Question: Which EC50 (Beta-galactosidase) does the source give for `O=C(C[n+]1ccc(-c2cc(C(=O)Nc3cccc(C(F)(F)F)c3)c3ccccc3n2)cc1)c1cccc([N+](=O)[O-])c1` here?
Answer: > 40 µM (inactive)

Question: And the IC50 [13]?
Answer: 26 µM (not active)

Question: What does the source list for `CC(NC(=O)COc1ccccc1)C(=O)OCC(=O)c1cc2ccccc2o1` (stereo not given)?
Answer: EC50 [14]: > 300 µM (not active); EC50 [15]: > 300 µM (not active); EC50 (Beta-galactosidase): > 40 µM (inactive); IC50 [13]: 13.8 µM (active)

Question: For `CCC(OC(=O)c1cc2sccc2n1C)C(=O)NCc1ccco1` (stereo not given), which EC50 [4] is on record?
Answer: > 79.4 µM (inactive)

Question: What about the EC50 [5] of the same compound?
Answer: > 79.4 µM (not active)

Question: And the EC50 [6]?
Answer: > 26.5 µM (not active)

Question: With `CC(=O)Nc1ccc(/C=C/c2nc3ccccc3o2)cc1` as the compound, how does the AC50 [1] read?
Answer: 1.2 µM (active)
